Reference: PMC4047093, “Structural Insights into SraP-Mediated Staphylococcus aureus Adhesion to Host Cells” (PLoS Pathogens, 2014)

Experiments:
L-lectin module of SraP = L-lectin module of SraP (Staphylococcus aureus, UniProt Q2FUW1); test: SPR (Biacore […]), steady state, […] Langmuir fit; type: binding; settings: 10 mM HEPES pH 7.5, 150 mM NaCl, 0.005% Tween 20, 25 °C; protein immobilised on CM5 chip; Neu5Ac 0.12-10 mM
[1] = target: the molecule itself; test: SEC; Superdex 75 column, CDHL-1&2 against protein markers of 67, 44, 25, 17 and 13.7 kDa

Chain of L-lectin module of SraP (Q2FUW1 245-491): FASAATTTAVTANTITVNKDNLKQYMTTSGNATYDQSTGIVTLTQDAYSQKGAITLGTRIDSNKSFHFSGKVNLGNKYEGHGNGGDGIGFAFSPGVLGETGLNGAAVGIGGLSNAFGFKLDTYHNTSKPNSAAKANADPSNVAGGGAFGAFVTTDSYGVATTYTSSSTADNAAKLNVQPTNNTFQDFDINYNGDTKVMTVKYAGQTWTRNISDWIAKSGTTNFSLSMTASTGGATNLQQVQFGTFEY

Molecule	Kd (L-lectin module of SraP) [µM]	stoichiometry N [1]
CC(=O)N[C@H]1[C@H]([C@H](O)[C@H](O)CO)OC(O)(C(=O)O)C[C@@H]1O (some centres unmarked) [N-acetylneuraminic acid]	540	–
CDHL-1&2 (tandem cadherin-like modules of SraP, Ala576–Asn751) (domain or fragment, modules CDHL-1 and CDHL-2, residues Ala576–Asn751; Lacks the two Ca-2 coordinating residues Asp573 and Lys575; also called CDHL-1&2 modules; tandem CDHL modules; source: E. coli BL21, purified (Ni-NTA, Superdex 200 or Superdex 75)) APTVTVGNQTIEVGKTMNPIVLTTTDNGTGTVTNTVTGLPSGLSYDSATNSIIGTPTKIGQSTVTVVSTDQANNKSTTTFTINVVDTTAPTVTPIGDQSSEVYSPISPIKIATQDNSGNAVTNTVTGLPSGLTFDSTNNTISGTPTNIGTSTISIVSTDASGNKTTTTFKYEVTRN	–	2
